One data set concerns rabbit. The conditions noted are these: Prenatal developmental toxicity study, dutch, Oral, Gavage/Intubation, dose end: 18 GD.
The test system of data set [1] is rat. To be noted: Combined chronic toxicity/carcinogenicity; fischer; Oral; Feed; dose end: 24 month; group: systemic; systemic / clinical chemistry / alanine aminotransferase (alt/sgpt) / alanine aminotransferase (alt/sgpt) + systemic / in life observation….
For data set [2], the system named is mouse. To be noted: Carcinogenicity; Oral; Feed; dose end: 24 month; group: systemic; systemic / pathology microscopic / skin / fibrosarcoma + systemic / clinical chemistry / aminopyrine-n-demethylase / aminopyrine-n-….
The subject of data set [3] is dog. To be noted: Chronic toxicity, beagle, Oral, Capsule, dose end: 104 week, group: systemic.
In data set [4] the test system is mouse. To be noted: Carcinogenicity, cd1, Oral, Feed, dose end: 78 week, group: systemic.
Data set [5] concerns dog. The conditions noted are these: Subchronic oral toxicity in nonrodent, beagle, Capsule, dose end: 98 day, group: systemic.
In data set [6] the test system is rat. To be noted: Subchronic oral toxicity in rodents, sprague dawley, Feed, dose end: 13 week, group: systemic.
Data set [7] deals with rat. The conditions noted are these: Combined chronic toxicity/carcinogenicity, sprague dawley, Oral, Feed, dose end: 24 month, group: systemic.
Setting [8] is: group: developmental, developmental / developmental malformation / bone / [other] + developmental / developmental malformation / bone / full supernumerary + ….
Setting [9] is: group: maternal, reproductive / reproductive performance / aborted / aborted + reproductive / reproductive performance / resorptions / resorptions + systemic….
[10] abbreviates: systemic / in life observation / clinical signs / emesis + systemic / in life observation / clinical signs / salivation + systemic / in life….
[11] abbreviates: systemic / in life observation / clinical signs / soft stools + systemic / in life observation / clinical signs / emesis.
Where [12] appears, read: systemic / pathology gross / liver / enlarged + systemic / pathology microscopic / liver / glycogen deposition.
[13] abbreviates: systemic / pathology gross / liver / enlarged + systemic / pathology microscopic / liver / glycogen deposition + systemic / clinical ….
The mark [14] stands for this setting: systemic / clinical chemistry / aspartate aminotransferase (ast/sgot) / aspartate aminotransferase (ast/sgot).
Setting [15] is: systemic / in life observation / body weight / body weight + systemic / organ weight / liver / relative to body weight + systemic / clinical….

Turning to `Cn1cc(-c2ccccc2)c(=O)c(-c2cccc(C(F)(F)F)c2)c1` [Fluridone], in the data set on rabbit (setting [8]), the LEL is 750 mg/kg/day; the LOAEL (usually the lowest dose or exposure tested at which an adverse effect was seen) was above 750 mg/kg/day; the NEL amounted to 300 mg/kg/day; the no-observed-adverse-effect level (NOAEL) (as a rule, the highest dose or exposure tested at which no adverse effect was seen) was at least 750 mg/kg/day. Also, in the data set on rabbit (setting [9]), the LEL came out at 300 mg/kg/day, the LOAEL worked out at 300 mg/kg/day, the NEL was found to be 125 mg/kg/day and the NOAEL was 125 mg/kg/day. For the same compound, in the data set with rat [1], the LEL was 25.1 mg/kg/day, the LOAEL is above 80.8 mg/kg/day, the NEL was found to be 7.65 mg/kg/day and the NOAEL is at least 80.8 mg/kg/day. Further, in the data set with mouse [2], the LEL worked out at 50 mg/kg/day, the LOAEL was above 50 mg/kg/day, the NEL came out at 15 mg/kg/day and the NOAEL was at least 50 mg/kg/day.
For `CC(C)Oc1cccc(NC(=O)c2ccccc2C(F)(F)F)c1` [Flutolanil], the LOAEL in the data set on dog [3] (setting [10]) is 250 mg/kg/day; in the data set with mouse [4] (systemic / in life observation / body weight / body weight gain) it was 839 mg/kg/day; in the data set on dog [5] (setting [12]), 400 mg/kg/day; with rat [6] (systemic / organ weight / liver / absolute + systemic / organ weight / liver / relative to body weight), 339 mg/kg/day; in the data set with rat [7] (systemic / in life observation / body weight / body weight + systemic / organ weight / liver / relative to body weight), 460 mg/kg/day. For the same compound, the NOAEL amounted to 50 mg/kg/day with dog [3] (setting [10]); 168 mg/kg/day in the data set on mouse [4] (systemic / in life observation / body weight / body weight gain + systemic / organ weight / liver / absolute + systemic / organ weight / …); 80 mg/kg/day in the data set on dog [5] (setting [13]); 44 mg/kg/day with rat [6] (systemic / organ weight / liver / absolute + systemic / organ weight / liver / relative to body weight + systemic / clinical chemistry / …); 86.9 mg/kg/day in the data set on rat [7] (setting [15]). The LEL in the data set on dog [3] (setting [11]) was 50 mg/kg/day; with mouse [4] (systemic / pathology microscopic / liver / vacuolization) it was 162 mg/kg/day; with dog [5] (setting [12]), 400 mg/kg/day; in the data set on rat [6] (setting [14]) it was 37 mg/kg/day; in the data set with rat [7] (setting [15]), 460 mg/kg/day. Further, the NEL in the data set with dog [3] (setting [11]) is below 50 mg/kg/day; in the data set with mouse [4] (systemic / pathology microscopic / liver / vacuolization + systemic / in life observation / body weight / body weight gain), 32 mg/kg/day; in the data set with dog [5] (setting [13]) it was 80 mg/kg/day; with rat [6] (setting [14]), below 37 mg/kg/day; in the data set on rat [7] (systemic / organ weight / liver / relative to body weight), 86.9 mg/kg/day.

(Values after EPA's ToxRefDB 2.)
